From patent US11214803B2, “Modulators of YAP1 expression” (Ionis Pharmaceuticals, Inc., priority 2019, dated 2022)
Strand notation (5' to 3'): a small letter for the sugar, then the base; units joined by * are phosphorothioate-linked, units joined directly phosphodiester-linked; [ ] holds rarer units or linkages, { } end groups; capitals alone tell only the bases. k = constrained ethyl (cEt); [5mC] = 5-methylcytosine; d = 2'-deoxy (DNA)

Tests used:
Format in all cases: cell-based, human
[1] = system: Yap1 mRNA; assay: Yap1 mRNA in SNU-1214 cells, RNA analysis (Example 46); conditions: free uptake, approximately 48 hours
Procedure: Modified oligonucleotides described in the studies above were tested at various doses in laryngeal squamous cell carcinoma cell line […]. A control oligonucleotide 792169, described herein above, was also tested.
(§1) Cultured SNU-1214 cells at a density of 5000 cells per well were treated using free uptake with modified oligonucleotides diluted to concentrations described in the tables below. After approximately 48 hours, Yap1 mRNA levels were measured as previously described using the Human Yap1 primer-probe set RTS4814. Yap1 mRNA levels were normalized to actin-beta content, as measured by primer probe set RTS5002. Results are presented in the tables below as percent control of the amount of Yap1 mRNA relative to untreated control cells (% UTC).

[2] = system: Yap1 mRNA; assay: Yap1 mRNA in SCC-25 cells, RNA analysis (Example 42); conditions: free uptake, approximately 48 hours
Procedure: Modified oligonucleotides described in the studies above were tested at various doses in tongue squamous cell carcinoma cell line SCC-25. A control oligonucleotide 792169, described herein above, was also tested.
as §1, with “SCC-25” for “SNU-1214”

[3] = system: BICR-22 cells; assay: Cell proliferation assay in BICR-22 cells, CellTiter-Glo (Example 35); conditions: free uptake, approximately 144 hours
Procedure: Modified oligonucleotides described in the studies above were tested at various doses in tongue squamous carcinoma (lymph node metastasis) cell line BICR-22. A control oligonucleotide 792169, described herein above, was also tested.
(§2) Cultured BICR-22 cells at a density of 1000 cells/well were treated using free uptake with modified oligonucleotides diluted to concentrations described in the tables below. After approximately 144 hours, cell proliferation was measured using the luminescent cell viability CellTiter-Glo® 2.0 Assay (Promega). Results are presented in the tables below as percent control of the amount of luminescence in samples treated with modified oligonucleotides relative to untreated control cells (% UTC).

[4] = system: NCI H747 cells; assay: Cell proliferation assay in NCI H747 cells, CellTiter-Glo (Example 31); conditions: free uptake, 7 days
Procedure: Modified oligonucleotides described in the studies above were tested at various doses in colorectal adenocarcinoma cell line NCI H747. A control oligonucleotide 792169 was also tested.
as §2, with “NCI H747” for “BICR-22”, “3000” for “1000”, “7 days,” for “approximately 144 hours,”

[5] = system: Yap1 mRNA; assay: Yap1 mRNA in UPCI:SCC090 cells, RNA analysis (Example 47); conditions: free uptake, approximately 48 hours
Procedure: (§3) Modified oligonucleotides described in the studies above were tested at various doses in tongue squamous cell carcinoma cell line UPCI:SCC090. A control oligonucleotide 792169, described herein above, was also tested.
as §1, with “UPCI:SCC090” for “SNU-1214”

[6] = system: Yap1 mRNA; assay: Yap1 mRNA in SCC-9 cells, RNA analysis (Example 40); conditions: free uptake, approximately 48 hours
Procedure: Modified oligonucleotides described in the studies above were tested at various doses in tongue squamous cell carcinoma cell line SCC-9. A control oligonucleotide 792169, described herein above, was also tested.
as §1, with “SCC-9” for “SNU-1214”

[7] = system: Yap1 mRNA; assay: Yap1 mRNA in NCI H292 cells, RNA analysis (Example 32); conditions: free uptake, approximately 48 hours
Procedure: Modified oligonucleotides described in the studies above were tested at various doses in mucoepidermoid pulmonary carcinoma cell line […]. A control oligonucleotide 792169 was also tested.
as §1, with “NCI H292” for “SNU-1214”

[8] = system: UPCI:SCC090 cells; assay: Cell proliferation assay in UPCI:SCC090 cells, CellTiter-Glo (Example 47); conditions: free uptake, approximately 144 hours
Procedure: as §3
as §2, with “UPCI:SCC090” for “BICR-22”

Substance	human Yap1 mRNA expression ([1]; 0.04 μM) [% UTC]	human Yap1 mRNA expression ([1]; 0.2 μM) [% UTC]	human Yap1 mRNA expression ([1]; 1 μM) [% UTC]	human Yap1 mRNA expression ([1]; 5 μM) [% UTC]	human Yap1 mRNA expression ([2]; 0.08 μM) [% UTC]	human Yap1 mRNA expression ([2]; 0.4 μM) [% UTC]	human Yap1 mRNA expression ([2]; 2 μM) [% UTC]	human Yap1 mRNA expression ([2]; 10 μM) [% UTC]	Antiproliferative effect (cell proliferation, luminescence) ([3]; 0.04 μM) [% UTC]	Antiproliferative effect (cell proliferation, luminescence) ([3]; 0.2 μM) [% UTC]	Antiproliferative effect (cell proliferation, luminescence) ([3]; 1 μM) [% UTC]	Antiproliferative effect (cell proliferation, luminescence) ([3]; 5 μM) [% UTC]	Antiproliferative effect (cell proliferation, luminescence) ([4]; 0.04 μM) [% UTC]	Antiproliferative effect (cell proliferation, luminescence) ([4]; 0.2 μM) [% UTC]	Antiproliferative effect (cell proliferation, luminescence) ([4]; 1 μM) [% UTC]	Antiproliferative effect (cell proliferation, luminescence) ([4]; 5 μM) [% UTC]	human Yap1 mRNA expression ([5]; 0.04 μM) [% UTC]	human Yap1 mRNA expression ([5]; 0.2 μM) [% UTC]	human Yap1 mRNA expression ([5]; 1 μM) [% UTC]	human Yap1 mRNA expression ([5]; 5 μM) [% UTC]	also measured
715487 (kA*kT*kT*dA*d[5mC]*dT*dT*d[5mC]*dA*dT*dA*dG*d[5mC]*kT*kT*kA) [compound 715487]	71	36	16	9	70	32	16	11	70	56	28	22	91	86	65	42	70	37	26	14	human Yap1 mRNA expression ([6]; 0.04 μM): 74 % UTC; human Yap1 mRNA expression ([6]; 0.2 μM): 44 % UTC; human Yap1 mRNA expression ([6]; 1 μM): 21 % UTC; human Yap1 mRNA expression ([6]; 5 μM): 11 % UTC; human Yap1 mRNA expression ([7]; 0.04 μM): 104 % UTC; human Yap1 mRNA expression ([7]; 0.2 μM): 83 % UTC; human Yap1 mRNA expression ([7]; 1 μM): 40 % UTC; human Yap1 mRNA expression ([7]; 5 μM): 12 % UTC; Antiproliferative effect (cell proliferation, luminescence) ([8]; 0.04 μM): 92 % UTC; Antiproliferative effect (cell proliferation, luminescence) ([8]; 0.2 μM): 94 % UTC; Antiproliferative effect (cell proliferation, luminescence) ([8]; 1 μM): 72 % UTC; Antiproliferative effect (cell proliferation, luminescence) ([8]; 5 μM): 68 % UTC
1198440 (AAGTGTATGTCAGAAG; cEt, 2'-MOE, 5-methylcytosine, phosphorothioate modifications, further chemistry not given here) [compound 1198440]	40	11	4	3	32	12	8	7	55	37	29	19	87	66	36	18	60	26	10	5	human Yap1 mRNA expression ([6]; 0.04 μM): 53 % UTC; human Yap1 mRNA expression ([6]; 0.2 μM): 18 % UTC; human Yap1 mRNA expression ([6]; 1 μM): 6 % UTC; human Yap1 mRNA expression ([6]; 5 μM): 2 % UTC; human Yap1 mRNA expression ([7]; 0.04 μM): 89 % UTC; human Yap1 mRNA expression ([7]; 0.2 μM): 53 % UTC; human Yap1 mRNA expression ([7]; 1 μM): 18 % UTC; human Yap1 mRNA expression ([7]; 5 μM): 5 % UTC; Antiproliferative effect (cell proliferation, luminescence) ([8]; 0.04 μM): 101 % UTC; Antiproliferative effect (cell proliferation, luminescence) ([8]; 0.2 μM): 92 % UTC; Antiproliferative effect (cell proliferation, luminescence) ([8]; 1 μM): 75 % UTC; Antiproliferative effect (cell proliferation, luminescence) ([8]; 5 μM): 70 % UTC
CGCCGATAAGGTACAC (cEt gapmer, phosphorothioate backbone, further chemistry not given here) [ION 792169, reference compound]	97	104	106	109	87	87	89	86	97	95	82	65	89	97	91	80	100	108	112	84	human Yap1 mRNA expression ([6]; 0.04 μM): 86 % UTC; human Yap1 mRNA expression ([6]; 0.2 μM): 94 % UTC; human Yap1 mRNA expression ([6]; 1 μM): 96 % UTC; human Yap1 mRNA expression ([6]; 5 μM): 101 % UTC; human Yap1 mRNA expression ([7]; 0.04 μM): 98 % UTC; human Yap1 mRNA expression ([7]; 0.2 μM): 112 % UTC; human Yap1 mRNA expression ([7]; 1 μM): 111 % UTC; human Yap1 mRNA expression ([7]; 5 μM): 106 % UTC; Antiproliferative effect (cell proliferation, luminescence) ([8]; 0.04 μM): 100 % UTC; Antiproliferative effect (cell proliferation, luminescence) ([8]; 0.2 μM): 104 % UTC; Antiproliferative effect (cell proliferation, luminescence) ([8]; 1 μM): 99 % UTC; Antiproliferative effect (cell proliferation, luminescence) ([8]; 5 μM): 93 % UTC
